According to the supplement of paper PMC10733146:

Columns and labels:
Assay in all cases: viability relative to DMSO control (fraction); higher = less drug effect (more viable cells)
Conditions in all cases: 48 h
[1] = system: primary AML patient cells (S081)
Outline: (§1)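 Cells were incubated for 48 h at 37 °C and 5% CO2 in RPMI-1640 with penicillin/streptomycin, L-glutamine and human serum, at 4 × 10^4 cells per well in 384-well plates with compounds pre-plated at five concentrations, one well each. These were primary mononuclear tumour cells, fresh or cryopreserved, Ficoll-isolated from blood or bone marrow or obtained from processed lymph node. Viability values are CellTiter-Glo luminescence relative to the median of 16 inner DMSO wells.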

[2] = system: primary FL patient cells (S087)
Outline: as §1

[3] = system: primary AML patient cells (S012)
Outline: as §1

[4] = system: primary MCL patient cells (S053)
Outline: as §1

[5] = system: primary AML patient cells (S019)
Outline: as §1

[6] = system: primary BL patient cells (S005)
Outline: as §1

[7] = system: primary AML patient cells (S002)
Outline: as §1

[8] = system: primary AML patient cells (S011)
Outline: as §1

[9] = system: primary AML patient cells (S037)
Outline: as §1

[10] = system: primary MCL patient cells (S068)
Outline: as §1

[11] = system: primary AML patient cells (S025)
Outline: as §1

[12] = system: primary AML patient cells (S091)
Outline: as §1

[13] = system: primary AML patient cells (S009)
Outline: as §1

[14] = system: primary AML patient cells (S085)
Outline: as §1

[15] = system: primary MCL patient cells (S041)
Outline: as §1

[16] = system: primary AML patient cells (S021)
Outline: as §1

[17] = system: primary FL patient cells (S022)
Outline: as §1

[18] = system: primary B-PLL patient cells (S016)
Outline: as §1

[19] = system: primary AML patient cells (S017)
Outline: as §1

[20] = system: primary T-PLL patient cells (S008)
Outline: as §1

SMILES: O=C1c2c(O)ccc(O)c2C(=O)c2c(NCCNCCO)ccc(NCCNCCO)c21 [Mitoxantrone]
- viability ([1]; 0.008 µM): 0.995
- viability ([1]; 0.04 µM): 1.01
- viability ([1]; 0.2 µM): 1.09
- viability ([1]; 1 µM): 0.167
- viability ([1]; 5 µM): 0.0158
- viability ([2]; 0.008 µM): 0.868
- viability ([2]; 0.04 µM): 0.763
- viability ([2]; 0.2 µM): 0.717
- viability ([2]; 1 µM): 0.548
- viability ([2]; 5 µM): 0.177
- viability ([3]; 0.008 µM): 0.991
- viability ([3]; 0.04 µM): 0.995
- viability ([3]; 0.2 µM): 0.978
- viability ([3]; 1 µM): 0.862
- viability ([3]; 5 µM): 0.0416
- viability ([4]; 0.008 µM): 0.452
- viability ([4]; 0.04 µM): 0.326
- viability ([4]; 0.2 µM): 0.363
- viability ([4]; 1 µM): 0.236
- viability ([4]; 5 µM): 0.169
- viability ([5]; 0.008 µM): 0.647
- viability ([5]; 0.04 µM): 0.256
- viability ([5]; 0.2 µM): 0.282
- viability ([5]; 1 µM): 0.132
- viability ([5]; 5 µM): 0.0646
- viability ([6]; 0.008 µM): 0.963
- viability ([6]; 0.04 µM): 1.55
- viability ([6]; 0.2 µM): 0.853
- viability ([6]; 1 µM): 0.649
- viability ([6]; 5 µM): 0.742
- viability ([7]; 0.008 µM): 0.744
- viability ([7]; 0.04 µM): 0.443
- viability ([7]; 0.2 µM): 0.332
- viability ([7]; 1 µM): 0.334
- viability ([7]; 5 µM): 0.22
- viability ([8]; 0.008 µM): 0.818
- viability ([8]; 0.04 µM): 0.384
- viability ([8]; 0.2 µM): 0.203
- viability ([8]; 1 µM): 0.041
- viability ([8]; 5 µM): 0.0174
- viability ([9]; 0.008 µM): 0.843
- viability ([9]; 0.04 µM): 0.581
- viability ([9]; 0.2 µM): 0.447
- viability ([9]; 1 µM): 0.345
- viability ([9]; 5 µM): 0.211
- viability ([10]; 0.008 µM): 0.814
- viability ([10]; 0.04 µM): 0.596
- viability ([10]; 0.2 µM): 0.434
- viability ([10]; 1 µM): 0.0583
- viability ([10]; 5 µM): 0.0225
- viability ([11]; 0.008 µM): 0.539
- viability ([11]; 0.04 µM): 0.399
- viability ([11]; 0.2 µM): 0.533
- viability ([11]; 1 µM): 0.0658
- viability ([11]; 5 µM): 0.0287
- viability ([12]; 0.008 µM): 0.494
- viability ([12]; 0.04 µM): 0.563
- viability ([12]; 0.2 µM): 0.46
- viability ([12]; 1 µM): 0.118
- viability ([12]; 5 µM): 0.0676
- viability ([13]; 0.008 µM): 0.788
- viability ([13]; 0.04 µM): 0.651
- viability ([13]; 0.2 µM): 0.517
- viability ([13]; 1 µM): 0.156
- viability ([13]; 5 µM): 0.0504
- viability ([14]; 0.008 µM): 0.538
- viability ([14]; 0.04 µM): 0.295
- viability ([14]; 0.2 µM): 0.277
- viability ([14]; 1 µM): 0.065
- viability ([14]; 5 µM): 0.0217
- viability ([15]; 0.008 µM): 0.985
- viability ([15]; 0.04 µM): 0.862
- viability ([15]; 0.2 µM): 0.569
- viability ([15]; 1 µM): 0.0728
- viability ([15]; 5 µM): 0.015
- viability ([16]; 0.008 µM): 0.66
- viability ([16]; 0.04 µM): 0.327
- viability ([16]; 0.2 µM): 0.265
- viability ([16]; 1 µM): 0.212
- viability ([16]; 5 µM): 0.106
- viability ([17]; 0.008 µM): 0.953
- viability ([17]; 0.04 µM): 0.844
- viability ([17]; 0.2 µM): 0.804
- viability ([17]; 1 µM): 0.437
- viability ([17]; 5 µM): 0.229
- viability ([18]; 0.008 µM): 0.278
- viability ([18]; 0.04 µM): 0.0753
- viability ([18]; 0.2 µM): 0.0754
- viability ([18]; 1 µM): 0.0236
- viability ([18]; 5 µM): 0.014
- viability ([19]; 0.008 µM): 0.952
- viability ([19]; 0.04 µM): 0.811
- viability ([19]; 0.2 µM): 0.608
- viability ([19]; 1 µM): 0.126
- viability ([19]; 5 µM): 0.0293
- viability ([20]; 0.008 µM): 1.02
- viability ([20]; 0.04 µM): 0.961
- viability ([20]; 0.2 µM): 0.502
- viability ([20]; 1 µM): 0.0553
- viability ([20]; 5 µM): 0.0424

SMILES: COc1ccc(C2=N[C@@H](c3ccc(Cl)cc3)[C@@H](c3ccc(Cl)cc3)N2C(=O)N2CCNC(=O)C2)c(OC(C)C)c1 [Nutlin-3a]
- viability ([1]; 0.032 µM): 0.997
- viability ([1]; 0.16 µM): 0.979
- viability ([1]; 0.8 µM): 1.03
- viability ([1]; 4 µM): 1.02
- viability ([1]; 20 µM): 0.783
- viability ([2]; 0.032 µM): 0.984
- viability ([2]; 0.16 µM): 0.964
- viability ([2]; 0.8 µM): 0.931
- viability ([2]; 4 µM): 0.816
- viability ([2]; 20 µM): 0.675
- viability ([3]; 0.032 µM): 0.945
- viability ([3]; 0.16 µM): 0.946
- viability ([3]; 0.8 µM): 1.03
- viability ([3]; 4 µM): 1.01
- viability ([3]; 20 µM): 0.883
- viability ([4]; 0.032 µM): 1.01
- viability ([4]; 0.16 µM): 0.896
- viability ([4]; 0.8 µM): 0.738
- viability ([4]; 4 µM): 0.433
- viability ([4]; 20 µM): 0.282
- viability ([5]; 0.032 µM): 1.13
- viability ([5]; 0.16 µM): 1.03
- viability ([5]; 0.8 µM): 1.08
- viability ([5]; 4 µM): 0.546
- viability ([5]; 20 µM): 0.259
- viability ([6]; 0.032 µM): 0.962
- viability ([6]; 0.16 µM): 0.887
- viability ([6]; 0.8 µM): 1.01
- viability ([6]; 4 µM): 0.91
- viability ([6]; 20 µM): 0.827
- viability ([7]; 0.032 µM): 0.891
- viability ([7]; 0.16 µM): 0.91
- viability ([7]; 0.8 µM): 0.726
- viability ([7]; 4 µM): 0.401
- viability ([7]; 20 µM): 0.268
- viability ([8]; 0.032 µM): 0.973
- viability ([8]; 0.16 µM): 1.04
- viability ([8]; 0.8 µM): 0.8
- viability ([8]; 4 µM): 0.363
- viability ([8]; 20 µM): 0.155
- viability ([9]; 0.032 µM): 0.982
- viability ([9]; 0.16 µM): 0.974
- viability ([9]; 0.8 µM): 0.964
- viability ([9]; 4 µM): 0.742
- viability ([9]; 20 µM): 0.421
- viability ([10]; 0.032 µM): 1.17
- viability ([10]; 0.16 µM): 0.988
- viability ([10]; 0.8 µM): 0.987
- viability ([10]; 4 µM): 0.929
- viability ([10]; 20 µM): 0.949
- viability ([11]; 0.032 µM): 0.961
- viability ([11]; 0.16 µM): 0.947
- viability ([11]; 0.8 µM): 0.788
- viability ([11]; 4 µM): 0.346
- viability ([11]; 20 µM): 0.0996
- viability ([12]; 0.032 µM): 0.988
- viability ([12]; 0.16 µM): 0.84
- viability ([12]; 0.8 µM): 0.62
- viability ([12]; 4 µM): 0.404
- viability ([12]; 20 µM): 0.365
- viability ([13]; 0.032 µM): 0.875
- viability ([13]; 0.16 µM): 0.89
- viability ([13]; 0.8 µM): 0.744
- viability ([13]; 4 µM): 0.621
- viability ([13]; 20 µM): 0.493
- viability ([14]; 0.032 µM): 1.06
- viability ([14]; 0.16 µM): 1.31
- viability ([14]; 0.8 µM): 0.877
- viability ([14]; 4 µM): 0.509
- viability ([14]; 20 µM): 0.503
- viability ([15]; 0.032 µM): 0.988
- viability ([15]; 0.16 µM): 0.976
- viability ([15]; 0.8 µM): 0.921
- viability ([15]; 4 µM): 0.717
- viability ([15]; 20 µM): 0.34
- viability ([16]; 0.032 µM): 0.972
- viability ([16]; 0.16 µM): 0.978
- viability ([16]; 0.8 µM): 0.73
- viability ([16]; 4 µM): 0.328
- viability ([16]; 20 µM): 0.2
- viability ([17]; 0.032 µM): 0.954
- viability ([17]; 0.16 µM): 0.936
- viability ([17]; 0.8 µM): 1.02
- viability ([17]; 4 µM): 0.881
- viability ([17]; 20 µM): 0.621
- viability ([18]; 0.032 µM): 1.06
- viability ([18]; 0.16 µM): 0.946
- viability ([18]; 0.8 µM): 1.02
- viability ([18]; 4 µM): 0.733
- viability ([18]; 20 µM): 0.101
- viability ([19]; 0.032 µM): 1.05
- viability ([19]; 0.16 µM): 0.979
- viability ([19]; 0.8 µM): 1.03
- viability ([19]; 4 µM): 1.03
- viability ([19]; 20 µM): 1.08
- viability ([20]; 0.032 µM): 1
- viability ([20]; 0.16 µM): 0.972
- viability ([20]; 0.8 µM): 0.963
- viability ([20]; 4 µM): 0.583
- viability ([20]; 20 µM): 0.205
